33 compounds from patent US20030229053A1, “Compounds and methods for the treatment or prevention of flavivirus infections” (Shire BioChem Inc., priority 2001, published 2003) can be followed below.

Some results are limits rather than exact numbers.

The IC50 is the concentration at which inhibition is half-maximal.

In the first test the target is HCV NS5B RNA-dependent RNA polymerase (Hepatitis C virus genotype 1b, UniProt P26663). Kind of test: In vitro RNA-dependent RNA polymerase assay (Assay 1), polyA/oligo dT, TCA precipitation. Format: biochemical.
Chain of HCV NS5B RNA-dependent RNA polymerase (P26663 2420-3010 limits assumed): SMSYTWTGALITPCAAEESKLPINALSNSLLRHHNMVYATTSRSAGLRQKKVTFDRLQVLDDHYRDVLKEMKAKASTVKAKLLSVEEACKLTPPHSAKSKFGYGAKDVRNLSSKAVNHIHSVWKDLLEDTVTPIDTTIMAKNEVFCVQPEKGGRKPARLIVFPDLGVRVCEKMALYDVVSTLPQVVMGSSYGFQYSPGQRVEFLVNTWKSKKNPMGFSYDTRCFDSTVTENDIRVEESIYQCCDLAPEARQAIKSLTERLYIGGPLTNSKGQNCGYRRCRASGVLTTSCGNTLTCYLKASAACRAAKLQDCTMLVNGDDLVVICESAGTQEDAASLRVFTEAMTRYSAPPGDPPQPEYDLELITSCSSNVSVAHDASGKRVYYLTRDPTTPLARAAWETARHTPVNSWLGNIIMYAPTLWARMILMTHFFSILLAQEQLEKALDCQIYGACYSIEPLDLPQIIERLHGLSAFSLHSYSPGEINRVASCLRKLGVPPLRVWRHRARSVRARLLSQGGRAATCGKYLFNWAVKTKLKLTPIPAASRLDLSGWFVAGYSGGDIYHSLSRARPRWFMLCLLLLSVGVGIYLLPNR
Settings: not given
Summed up: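 Purified NS5B (200 ng) on annealed polyA/oligo dT15 in 20 mM Tris-HCl pH 7.5, 50 mM NaCl, 5 mM MgCl2, 1 mM DTT, 15 µM cold UTP plus [32P]-UTP, 2 h at 22°C. Product TCA-precipitated, filtered onto glass-fibre and counted by liquid scintillation.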
For `O=C(O)[C@H](Cc1ccccc1)N(Cc1cccc(F)c1)C(=O)c1ccc(Cl)cc1Cl` [compound #51, (2s)-2-[(2,4-Dichloro-benzoyl)-(3-fluoro-benzyl)-amino]-3-phenyl-propionic acid], the IC50 was under 5 µM.

The same test, now with this note: polyA/oligo dT template/primer, 200 ng NS5B, 2 h at 22° C.; read-out: RNA pol Assay 1 IC50 (μm).
Regarding `COc1cccc(-c2ccc(CN(C(=O)c3ccc(Cl)cc3Cl)[C@@H](Cc3ccccc3)C(=O)O)s2)c1` [compound #96, (2s)-2-{(2,4-Dichloro-benzoyl)-[5-(3-methoxy-phenyl)-thiophen-2-ylmethyl]-amino}-3-phenyl-propionic acid], the IC50 was under 5 µM.

Regarding `CCCN(C(=O)c1ccc(Cl)cc1Cl)[C@@H](Cc1ccccc1)C(=O)O` [compound #112, (2s)-2-[(2,4-Dichloro-benzoyl)-propyl-amino]-3-phenyl-propionic acid], the IC50 is over 20 µM.

As for `COc1cc(C)c(S(=O)(=O)N(Cc2cccc(I)c2)[C@@H](Cc2ccccc2)C(=O)O)c(C)c1C` [compound #13, (2s)-2-[(3-Iodo-benzyl)-(4-methoxy-2,3,6-trimethyl-benzenesulfonyl)-amino]-3-phenyl-propionic acid], the IC50 was in the range of 5 to 20 µM.

As for `CCOC(=O)c1cccc(-c2ccc(CN(C(=O)c3ccc(Cl)cc3Cl)[C@@H](Cc3ccccc3)C(=O)O)s2)c1` [compound #122, 3-(5-{[(1s-1-Carboxy-2-phenyl-ethyl)-(2,4-dichloro-benzoyl)-amino]-methyl}-thiophen-2-yl)-benzoic acid ethyl ester], the half-inhibitory concentration (IC50) was under 5 µM.

Regarding `COc1ccc(-c2ccc(CN(C(=O)c3ccc(Cl)cc3Cl)[C@@H](Cc3ccccc3)C(=O)O)o2)cc1` [compound #134, (2s)-2-{(2,4-Dichloro-benzoyl)-[5-(4-methoxy-phenyl)-furan-2-ylmethyl]-amino}-3-phenyl-propionic acid], the half-maximal inhibitory concentration (IC50) was under 5 µM.

For the compound `O=C(O)[C@H](Cc1ccccc1)N(Cc1ccc(I)cc1)C(=O)c1ccc(Cl)cc1Cl` [compound #12, (2s)-2-[(2,4-Dichloro-benzoyl)-(4-iodo-benzyl)-amino]-3-phenyl-propionic acid], the IC50 was 5 to 20 µM.

As to `COC(=O)c1ccc(-c2ccc(CN(C(=O)c3ccc(Cl)cc3Cl)[C@@H](Cc3ccccc3)C(=O)O)s2)cc1` [compound #84, (2s)-4-(5-{[(1-Carboxy-2-phenyl-ethyl)-(2,4-dichloro-benzoyl)-amino]-methyl}-thiophen-2-yl)-benzoic acid methyl ester], the half-inhibitory concentration (IC50) was under 5 µM.

On to `O=C(O)[C@H](Cc1ccccc1)N(Cc1ccc(-c2cc3ccccc3o2)o1)C(=O)c1ccc(Cl)cc1Cl` [compound #58, (2s)-2-[(5-Benzofuran-2-yl-furan-2-ylmethyl)-(2,4-dichloro-benzoyl)-amino]-3-phenyl-propionic acid], for which the IC50 is under 5 µM.

As to `C#CCN(C(=O)c1ccc(Cl)cc1Cl)[C@@H](Cc1ccccc1)C(=O)O` [compound #111, (2s)-2-[(2,4-Dichloro-benzoyl)-prop-2-ynyl-amino]-3-phenyl-propionic acid], the 50% inhibitory concentration (IC50) is 5 to 20 µM.

Regarding `CN(C(=O)c1ccc(Cl)cc1Cl)[C@@H](Cc1ccccc1)C(=O)O` [compound #110, (2s)-2-[(2,4-Dichloro-benzoyl)-methyl-amino]-3-phenyl-propionic acid], the IC50 was in the range of 5 to 20 µM.

As to `O=C(O)c1ccc(-c2ccc(CN(C(=O)c3ccc(Cl)cc3Cl)[C@@H](Cc3ccccc3)C(=O)O)s2)cc1` [compound #83, (2s)-4-(5-{[(1s-1-Carboxy-2-phenyl-ethyl)-(2,4-dichloro-benzoyl)-amino]-methyl}-thiophen-2-yl)-benzoic acid], the IC50 is under 5 µM.

With `O=C(O)[C@H](Cc1ccccc1)N(Cc1ccc(-c2nccs2)s1)C(=O)c1ccc(Cl)cc1Cl` [compound #94, (2s)-2-[(2,4-Dichloro-benzoyl)-(5-thiazol-2-yl-thiophen-2-ylmethyl)-amino]-3-phenyl-propionic acid], the 50% inhibitory concentration (IC50) was under 5 µM.

Consider `O=C(O)[C@H](Cc1ccccc1)N(Cc1cccc(-c2nc3ccccc3o2)c1)C(=O)c1ccc(Cl)cc1Cl` [compound #45, (2s)-2-[(3-Benzooxazol-2-yl-benzyl)-(2,4-dichloro-benzoyl)-amino]-3-phenyl-propionic acid], for which the IC50 was under 5 µM.

For `O=C(O)[C@H](Cc1ccccc1)N(Cc1ccc(-c2cccc(Cl)c2)o1)C(=O)c1ccccc1Cl` [compound #55, (2s)-2-{(2-Chloro-benzoyl)-[5-(3-chloro-phenyl)-furan-2-ylmethyl]-amino}-3-phenyl-propionic acid], the IC50 fell in the range of 5 to 20 µM.

On to `O=C(O)[C@H](Cc1ccccc1)N(Cc1ccco1)C(=O)c1ccc(Cl)cc1Cl` [compound #75, (2s)-2-[(2,4-Dichloro-benzoyl)-furan-2-ylmethyl-amino]-3-phenyl-propionic acid], for which the 50% inhibitory concentration (IC50) is 5 to 20 µM.

Take `O=C1c2ccccc2C(=O)c2cc(CN(C(=O)c3ccc(Cl)cc3Cl)[C@@H](Cc3ccccc3)C(=O)O)ccc21` [compound #40, (2s)-2-[(2,4-Dichloro-benzoyl)-(9,10-dioxo-9,10-dihydro-anthracen-2-ylmethyl)-amino]-3-phenyl-propionic acid]: the IC50 is under 5 µM.

For the compound `O=C(CN(C(=O)c1ccc(Cl)cc1Cl)[C@@H](Cc1ccccc1)C(=O)O)c1ccc(-c2ccc(Cl)cc2Cl)o1` [compound #107, (2s)-2-((2,4-Dichloro-benzoyl)-{2-[5-(2,4-dichloro-phenyl)-furan-2-yl]-2-oxo-ethyl}-amino)-3-phenyl-propionic acid], the IC50 was under 5 µM.

For `O=C(O)[C@H](Cc1ccccc1)N(Cc1cc(-c2ccncc2)cs1)C(=O)c1ccc(Cl)cc1Cl` [compound #139, (2s)-2-[(2,4-Dichloro-benzoyl)-(4-pyridin-4-yl-thiophen-2-ylmethyl)-amino]-3-phenyl-propionic acid], the IC50 was under 5 µM.

In the case of `O=C(O)[C@H](Cc1ccccc1)N(Cc1ccc(Br)o1)C(=O)c1ccc(Cl)cc1Cl` [compound #57, (2s)-2-[(5-Bromo-furan-2-ylmethyl)-(2,4-dichloro-benzoyl)-amino]-3-phenyl-propionic acid], the half-inhibitory concentration (IC50) fell in the range of 5 to 20 µM.

With `O=C(O)[C@H](Cc1ccccc1)N(Cc1ccc(-c2ccc(Cl)s2)o1)C(=O)c1ccc(Cl)cc1Cl` [compound #126, (2s)-2-[[5-(5-Chloro-thiophen-2-yl)-furan-2-ylmethyl]-(2,4-dichloro-benzoyl)-amino]-3-phenyl-propionic acid], the concentration for half-maximal inhibition (IC50) is under 5 µM.

On to `O=C(O)[C@H](Cc1ccccc1)N(Cc1ccc(-c2ccc(Cl)cc2Cl)o1)C(=O)c1ccc(Cl)cc1Cl` [compound #67, (2s)-2-{(2,4-Dichloro-benzoyl)-[5-(2,4-dichloro-phenyl)-furan-2-ylmethyl]-amino}-3-phenyl-propionic acid], for which the IC50 is under 5 µM.

As to `COc1cc(C)c(S(=O)(=O)N(Cc2ccc(Br)cc2)[C@@H](Cc2ccccc2)C(=O)O)c(C)c1C` [compound #14, (2s)-2-[(4-Bromo-benzyl)-(4-methoxy-2,3,6-trimethyl-benzenesulfonyl)-amino]-3-phenyl-propionic acid], the IC50 is 5 to 20 µM.

In the case of `C=CCN(C(=O)c1ccc(Cl)cc1I)C(Cc1ccccc1)C(=O)O` (stereo not drawn) [Compound #27, 2-[Allyl-(4-chloro-2-iodo-benzoyl)-amino]-3-phenyl-propionic acid], the concentration for half-maximal inhibition (IC50) lay in the range of 5 to 20 µM.

Take `O=C(O)[C@H](Cc1ccccc1)N(Cc1ccc(-c2ccc(Cl)s2)s1)C(=O)c1ccc(Cl)cc1Cl` [compound #128, (2s)-2-[(5′-Chloro-[2,2′]bithiophenyl-5-ylmethyl)-(2,4-dichloro-benzoyl)-amino]-3-phenyl-propionic acid]: the 50% inhibitory concentration (IC50) was under 5 µM.

For the compound `O=C(O)[C@H](Cc1ccccc1)N(Cc1ccc(-c2ccccc2Cl)o1)C(=O)c1ccc(Cl)cc1Cl` [compound #60, (2s)-2-[[5-(2-Chloro-phenyl)-furan-2-ylmethyl]-(2,4-dichloro-benzoyl)-amino]-3-phenyl-propionic acid], the half-inhibitory concentration (IC50) was under 5 µM.

Consider `O=C(O)[C@H](Cc1ccccc1)N(Cc1cccc(Br)c1)C(=O)c1ccc(Cl)c(Cl)c1` [compound #19, (2s)-2-[(3-Bromo-benzyl)-(3,4-dichloro-benzoyl)-amino]-3-phenyl-propionic acid], for which the half-maximal inhibitory concentration (IC50) is over 20 µM.

Regarding `O=C(O)[C@H](Cc1ccccc1)N(Cc1cccc(Br)c1)C(=O)Cc1ccc(Cl)cc1Cl` [compound #22, (2s)-2-{(3-Bromo-benzyl)-[(2,4-dichloro-phenyl)-acetyl]-amino}-3-phenyl-propionic acid], the IC50 fell in the range of 5 to 20 µM.

Take `O=C(O)[C@H](Cc1ccccc1)N(Cc1cc(Br)cs1)C(=O)c1ccc(Cl)cc1Cl` [compound #99, (2s)-2-[(4-Bromo-thiophen-2-ylmethyl)-(2,4-dichloro-benzoyl)-amino]-3-phenyl-propionic acid]: the half-inhibitory concentration (IC50) is under 5 µM.

For the compound `O=C(O)[C@H](Cc1ccccc1)N(Cc1cccc(Cl)c1)C(=O)c1ccc(Cl)cc1Cl` [compound #52, (2s)-2-[(3-Chloro-benzyl)-(2,4-dichloro-benzoyl)-amino]-3-phenyl-propionic acid], the IC50 was under 5 µM.

Regarding `O=C(O)[C@H](Cc1ccccc1)N(Cc1cc(-c2ccc(Cl)s2)cs1)C(=O)c1ccc(Cl)cc1Cl` [compound #133, (2s)-2-[(5-Chloro-[2,3′]bithiophenyl-5′-ylmethyl)-(2,4-dichloro-benzoyl)-amino]-3-phenyl-propionic acid], the IC50 was under 5 µM.

Consider `O=C(O)[C@H](Cc1ccccc1)N(Cc1ccc(-c2ccccc2[N+](=O)[O-])o1)C(=O)c1ccc(Cl)cc1Cl` [compound #62, (2s)-2-{(2,4-Dichloro-benzoyl)-[5-(2-nitro-phenyl)-furan-2-ylmethyl]-amino}-3-phenyl-propionic acid], for which the IC50 was under 5 µM.

`O=C(O)[C@H](Cc1ccccc1)N(Cc1ccc(-c2ccncc2)o1)C(=O)c1ccc(Cl)cc1Cl` [compound #137, (2s)-2-[(2,4-Dichloro-benzoyl)-(5-pyridin-4-yl-furan-2-ylmethyl)-amino]-3-phenyl-propionic acid]: the 50% inhibitory concentration (IC50) is under 5 µM.
